{
  "source": "paper PMC11568214",
  "about": "“The impact of 9-azaglycophymine and phenylguanidine derivatives on the proliferation of various breast cancer cell lines in vitro and in vivo” (Scientific Reports, 2024)",
  "key": {"4T1 [1]": {"tested_on": "4T1", "assay": "Cell division analysis, CFSE staining, flow cytometry", "type": "cell-based, mouse", "design": "key: ↑: induction; ↓: inhibition; ↔: no effect", "conditions": "4T1, IC50 for 72 h", "protocol": "(§1) The cells were stained with CFSE (1 µM) in PBS containing 0.1% (v/v) FCS for 10 min. Afterwards, cells were washed with PBS, and then seeded with growth medium in 6-well plates. The plates were incubated for 24 h under standard culture conditions. […] Subsequently, the cells were detached using 0.5 mL of 0.05% (v/v) Trypsin–EDTA for 3 min at 37 °C. Then trypsin was deactivated by the addition of FCS-containing growth medium. The cell suspensions were collected, centrifuged for 3 min at 800 rpm, and the cell pellets were resuspended in fresh PBS. Finally, the samples were analyzed by using flow cytometry."}, "4T1 [2]": {"tested_on": "4T1", "assay": "Autophagy induction, acridine orange staining, flow cytometry", "type": "cell-based, mouse", "design": "key: ↑: induction; ↓: inhibition; ↔: no effect", "conditions": "4T1, IC50 for 72 h", "protocol": "Cells were seeded in 6-well plates and incubated for 24 h under standard culture conditions. […] For the analyses of autophagy induction, the cell suspension was centrifuged for 3 min at 800 rpm, and the cell pellet was stained with 1 mL of AO working solution (1 µg/mL of AO in growth medium). Cells were incubated for 15 min under standard culture conditions. The cell suspension was centrifuged for 3 min at 800 rpm, and the cell pellet was washed with 1 mL of fresh PBS. Finally, all samples were analyzed by using flow cytometry (FACSAria III, BD Biosciences, New Jersey, USA)."}, "4T1 [3]": {"tested_on": "4T1", "assay": "Crystal violet (CV) cell viability assay, IC50 determination", "type": "cell-based", "conditions": "Mus musculus, 72 h treatment, mean ± SD", "protocol": "(§2) For initial testing of the cytotoxic effect of the available glycophymine compounds (Table S2), cells were treated with compound in three concentrations: 1, 10 and 50 µM. Cells were seeded in 96-well plates and allowed to adhere overnight. Then they were treated for 72 h under standard culture conditions. […] For IC50 determination, the compounds were tested at seven concentrations (0.78, 1.56, 3.13, 6.25, 12.5, 25 and 50 µM). Subsequently, the cell viability was determined by using the crystal violet (CV) assay. Moreover, the selected compounds were tested against the mouse breast cancer cell line 4T1 (TNBC) as well. The compounds were prepared initially to obtain a stock solution of 20 mM in DMSO. Later, the working solutions were prepared by mixing the required amount of DMSO stock with the optimal medium for each cell line. The DMSO concentration in the final solution was always maintained lower than 0.5% to avoid any DMSO-derived side effects.\n(§3) For CV assays, after 72 h treatment, the treatment medium was discarded from the 96-well plates, and the cells were washed using 50 µL of PBS. Cells were fixed by adding 50 µL of 4% (v/v) paraformaldehyde (PFA) in PBS for 15 min at room temperature (RT). Afterwards, PFA was discarded, and the plates were dried for 15 min at RT. 50 µL of CV working solution (0.1% w/v CV in PBS) were added to the wells, followed by 15 min incubation at RT. Subsequently, the CV solution was discarded, and the plates were washed using aqua bidest. (ddH2O) to remove any remaining CV solution. The plates were left to dry overnight at RT, and then 50 µL of 33% (v/v) acetic acid in ddH2O were added to each well. Finally, the absorbance was measured at 570 nm by using a SpectraMax M5 plate reader (Molecular Devices, California, USA) and at 670 nm as background wavelength. […] Additionally, gefitinib, an approved EGFR inhibitor of the quinazoline family, was tested as anti-proliferative positive control. The data represent the mean ± standard deviation derived from three independent biological replicates. Dose–response curves were generated by four-parametric non-linear regression analysis using the GraphPad Prism software (version: 10.1, San Diego, CA, USA). Based on that, IC50 values and standard deviations were calculated for each replicate individually."}, "HCC1937 [4]": {"tested_on": "HCC1937", "assay": "Crystal violet (CV) cell viability assay, IC50 determination", "type": "cell-based", "conditions": "Homo sapiens, 72 h treatment, mean ± SD", "protocol": "as §2, §3"}, "BT-474 [5]": {"tested_on": "BT-474", "assay": "Crystal violet (CV) cell viability assay, IC50 determination", "type": "cell-based", "conditions": "Homo sapiens, 72 h treatment, mean ± SD", "protocol": "as §2, §3"}, "MCF-7 [6]": {"tested_on": "MCF-7", "assay": "Crystal violet (CV) cell viability assay, IC50 determination", "type": "cell-based", "conditions": "Homo sapiens, MCF7, 72 h treatment, mean ± SD", "protocol": "as §2, §3"}, "[7]": {"tested_on": "MCF-7, MDA-MB-468, BT-474 and HCC1937 breast cancer cells", "assay": "Fast screening / CV cell viability, breast cancer cell line panel", "type": "cell-based, human", "design": "reduction of cell viability: concentration or dose not given beside the values", "protocol": "as §2, §3"}, "MDA-MB-468": {"tested_on": "MDA-MB-468", "assay": "Cell division analysis, CFSE staining, flow cytometry", "type": "cell-based, human", "design": "key: ↑: induction; ↓: inhibition; ↔: no effect", "conditions": "MDA-MB-468, IC50 for 72 h", "protocol": "as §1"}, "HCC1937 [8]": {"tested_on": "HCC1937", "assay": "Cell division analysis, CFSE staining, flow cytometry", "type": "cell-based, human", "design": "key: ↑: induction; ↓: inhibition; ↔: no effect", "conditions": "HCC1937, IC50 for 72 h", "protocol": "as §1"}, "BT-474 [9]": {"tested_on": "BT-474", "assay": "Cell division analysis, CFSE staining, flow cytometry", "type": "cell-based, human", "design": "key: ↑: induction; ↓: inhibition; ↔: no effect", "conditions": "BT-474, IC50 for 72 h", "protocol": "as §1"}, "MCF-7 [10]": {"tested_on": "MCF-7", "assay": "Cell division analysis, CFSE staining, flow cytometry", "type": "cell-based, human", "design": "key: ↑: induction; ↓: inhibition; ↔: no effect", "conditions": "MCF-7, IC50 for 72 h", "protocol": "as §1"}, "4T1 [11]": {"tested_on": "4T1", "assay": "ROS production, DHR staining, flow cytometry", "type": "cell-based, mouse", "design": "key: ↑: induction; ↓: inhibition; ↔: no effect", "conditions": "4T1, IC50 for 72 h", "protocol": "as §1, with “cytometry. For ROS production analyses, the procedure was performed exactly as described above for the cell division experiments, except that the CFSE staining solution was replaced by DHR staining solution resulting in 1 µM of DHR in PBS containing 0.1% (v/v) FCS[34],[35].” for “cytometry.”"}, "4T1 [12]": {"tested_on": "4T1", "assay": "NO production, DAF-FM staining, flow cytometry", "type": "cell-based, mouse", "design": "key: ↑: induction; ↓: inhibition; ↔: no effect", "conditions": "4T1, IC50 for 72 h", "protocol": "Afterwards, the medium was discarded and the cells were stained with DAF-FM (5 µM) in RPMI1640 with 10% (v/v) FCS for 1 h at 37 °C. The stain was completed by additional incubation for 15 min with serum-free medium. The cells were then detached, re-suspended in PBS and analyzed by flow cytometry."}},
  "note": "Read-outs that look alike come from different tables or passages of the source.",
  "data": [
    {"compound": "O=c1[nH]c(Nc2ccc([N+](=O)[O-])cc2)nc2ccccc12", "note": "[Compound 19, 4′-nitro-9-aza-glycophymine]", "values": [
      {"measurement": "Proliferation", "setting": "4T1 [1]", "value": "↓"},
      {"measurement": "Autophagy", "setting": "4T1 [2]", "value": "↔"},
      {"measurement": "IC50", "setting": "4T1 [3]", "value": "12.5 ± 3.7", "unit": "µM"},
      {"measurement": "IC50", "setting": "HCC1937 [4]", "value": "4.3 ± 0.1", "unit": "µM"},
      {"measurement": "IC50", "setting": "BT-474 [5]", "value": "4 ± 0.2", "unit": "µM"},
      {"measurement": "IC50", "setting": "MCF-7 [6]", "value": "5.5 ± 0.6", "unit": "µM"},
      {"measurement": "IC50", "setting": "[7]; 72 h, CV assay, across cell lines, read-out: IC50 values against the breast cancer cell lines", "value": "4 to 6", "unit": "µM"},
      {"measurement": "concentration below which active in cytotoxicity screening", "setting": "[7]; 72 h, initial screening", "value": "below 10 µM"},
      {"measurement": "anti-proliferative / cytotoxic effect", "setting": "[7]; 72 h, screening at 1, 10 and 50 µM", "value": "significantly reduced cell proliferation"},
      {"measurement": "IC50", "setting": "[7]; Homo sapiens, 72 h, CV assay, across cell lines, read-out: IC50 values against the breast cancer cell lines", "value": "~4", "unit": "µM"},
      {"measurement": "IC50", "setting": "[7]; Homo sapiens, 72 h, read-out: IC50 values (National Cancer Institute guideline criterion)", "value": "< 30", "unit": "µg/mL"},
      {"measurement": "reduction of cell viability", "setting": "[7]; after 72 h of treatment, initial screening", "value": "≥ 50", "unit": "%"},
      {"measurement": "Proliferation", "setting": "MDA-MB-468", "value": "↔"},
      {"measurement": "Proliferation", "setting": "HCC1937 [8]", "value": "↓"},
      {"measurement": "Proliferation", "setting": "BT-474 [9]", "value": "↓"},
      {"measurement": "Proliferation", "setting": "MCF-7 [10]", "value": "↔"},
      {"measurement": "ROS", "setting": "4T1 [11]", "value": "↔"},
      {"measurement": "NO", "setting": "4T1 [12]", "value": "↑"}
    ]}
  ]
}
